The target of test [1] is Wee1-like protein kinase (Homo sapiens) (UniProt P30291). Nature of the test: Selectivity interaction (KinomeScan (DiscoverX)) EUB0001079a WEE1. The following applies: at 1 µM.
Test [2] addresses Calcium/calmodulin-dependent protein kinase type 1 (Homo sapiens) (UniProt Q14012). In words: Selectivity interaction (ActivX KiNativ screen (kinase selectivity in THP-1 cell lysates)) EUB0000639a CAMK1. In kind it is subcellular. The following applies: lysate.
For test [3], the target named is Protein kinase C theta type (Homo sapiens, UniProt Q04759). In words: Selectivity interaction (Kinase panel (Invitrogen)) EUB0000639a PRKCQ. The following applies: at 200 nM.
Test [4] addresses T1, Serine/threonine-protein kinase Nek11 (Homo sapiens) (UniProt Q8NG66).
T1 sequence (whole entry): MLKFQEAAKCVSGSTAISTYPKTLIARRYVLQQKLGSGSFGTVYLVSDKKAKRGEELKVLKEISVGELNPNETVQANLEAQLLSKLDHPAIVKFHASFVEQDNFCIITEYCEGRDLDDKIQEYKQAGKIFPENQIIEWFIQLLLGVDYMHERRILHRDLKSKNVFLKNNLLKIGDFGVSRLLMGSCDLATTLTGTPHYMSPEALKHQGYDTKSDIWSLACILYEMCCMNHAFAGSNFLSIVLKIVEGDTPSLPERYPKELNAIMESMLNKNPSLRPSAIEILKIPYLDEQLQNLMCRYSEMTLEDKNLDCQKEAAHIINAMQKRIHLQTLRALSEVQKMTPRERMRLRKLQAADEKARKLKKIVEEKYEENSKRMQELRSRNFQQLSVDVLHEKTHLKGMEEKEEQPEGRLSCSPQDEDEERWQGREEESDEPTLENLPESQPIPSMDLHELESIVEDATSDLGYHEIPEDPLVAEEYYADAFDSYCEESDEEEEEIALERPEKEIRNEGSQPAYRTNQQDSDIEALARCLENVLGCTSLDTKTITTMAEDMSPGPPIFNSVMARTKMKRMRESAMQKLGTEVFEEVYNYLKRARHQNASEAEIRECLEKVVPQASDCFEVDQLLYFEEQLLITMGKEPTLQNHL
In words: Selectivity interaction (KinomeScan (DiscoverX)) EUB0000595a NEK11. The following applies: at 10 µM.

For test [5], the target named is T2, Serine/threonine-protein kinase LATS1 (Homo sapiens) (UniProt O95835).
T2 sequence (whole entry): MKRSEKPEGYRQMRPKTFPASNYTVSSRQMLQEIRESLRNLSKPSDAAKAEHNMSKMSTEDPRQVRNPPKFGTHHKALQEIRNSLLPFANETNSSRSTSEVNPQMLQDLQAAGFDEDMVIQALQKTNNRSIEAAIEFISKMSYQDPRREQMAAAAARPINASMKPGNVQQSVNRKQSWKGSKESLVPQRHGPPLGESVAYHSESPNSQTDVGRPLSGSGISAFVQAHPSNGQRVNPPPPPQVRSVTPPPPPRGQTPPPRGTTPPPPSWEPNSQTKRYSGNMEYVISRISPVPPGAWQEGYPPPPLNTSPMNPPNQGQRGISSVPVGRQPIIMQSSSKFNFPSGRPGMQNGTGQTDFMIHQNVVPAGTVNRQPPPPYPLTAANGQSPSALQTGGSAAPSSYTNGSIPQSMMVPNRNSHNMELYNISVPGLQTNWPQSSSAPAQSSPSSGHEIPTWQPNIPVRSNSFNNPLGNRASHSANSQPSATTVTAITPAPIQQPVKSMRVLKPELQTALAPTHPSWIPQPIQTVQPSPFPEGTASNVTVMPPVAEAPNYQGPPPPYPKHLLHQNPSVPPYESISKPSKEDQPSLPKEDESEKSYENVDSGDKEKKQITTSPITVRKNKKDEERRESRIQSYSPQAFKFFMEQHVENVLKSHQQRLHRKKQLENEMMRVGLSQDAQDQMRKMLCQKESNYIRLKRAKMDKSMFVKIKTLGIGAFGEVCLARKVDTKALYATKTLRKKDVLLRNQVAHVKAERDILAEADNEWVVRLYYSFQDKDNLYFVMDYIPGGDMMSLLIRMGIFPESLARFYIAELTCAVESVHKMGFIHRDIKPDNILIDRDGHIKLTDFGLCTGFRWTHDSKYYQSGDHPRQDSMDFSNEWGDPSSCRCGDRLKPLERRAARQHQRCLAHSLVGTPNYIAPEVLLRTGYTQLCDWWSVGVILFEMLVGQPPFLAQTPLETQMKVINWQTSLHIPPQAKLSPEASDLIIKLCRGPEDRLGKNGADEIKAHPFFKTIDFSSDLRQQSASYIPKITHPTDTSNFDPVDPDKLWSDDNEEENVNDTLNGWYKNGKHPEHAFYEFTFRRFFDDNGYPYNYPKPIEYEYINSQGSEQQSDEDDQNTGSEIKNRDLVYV
In words: Selectivity interaction (ActivX KiNativ screen (ex vivo kinase selectivity in human PBMCs)) EUB0001619a LATS1. In kind it is cell-based. The following applies: PBMC, at 1 µM.

Test [6] has as its target Dual specificity testis-specific protein kinase 1 (Homo sapiens) (UniProt Q15569). Nature of the test: Selectivity interaction (KinomeScan (DiscoverX)) EUB0000618a TESK1. The following applies: at 10 µM.

Sequence of Calcium/calmodulin-dependent protein kinase type 1 (Homo sapiens) (Q14012 whole entry, looked up): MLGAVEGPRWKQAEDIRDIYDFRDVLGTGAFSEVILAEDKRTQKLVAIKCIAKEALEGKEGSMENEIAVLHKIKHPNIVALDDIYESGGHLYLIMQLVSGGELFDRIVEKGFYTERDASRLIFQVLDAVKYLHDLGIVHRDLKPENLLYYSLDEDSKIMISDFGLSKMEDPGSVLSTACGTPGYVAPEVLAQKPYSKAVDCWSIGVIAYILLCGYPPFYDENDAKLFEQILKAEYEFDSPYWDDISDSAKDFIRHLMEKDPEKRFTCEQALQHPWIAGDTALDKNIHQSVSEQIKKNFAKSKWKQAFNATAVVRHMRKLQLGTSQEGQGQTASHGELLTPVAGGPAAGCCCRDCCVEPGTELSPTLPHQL
Sequence of Protein kinase C theta type (Q04759 whole entry, looked up): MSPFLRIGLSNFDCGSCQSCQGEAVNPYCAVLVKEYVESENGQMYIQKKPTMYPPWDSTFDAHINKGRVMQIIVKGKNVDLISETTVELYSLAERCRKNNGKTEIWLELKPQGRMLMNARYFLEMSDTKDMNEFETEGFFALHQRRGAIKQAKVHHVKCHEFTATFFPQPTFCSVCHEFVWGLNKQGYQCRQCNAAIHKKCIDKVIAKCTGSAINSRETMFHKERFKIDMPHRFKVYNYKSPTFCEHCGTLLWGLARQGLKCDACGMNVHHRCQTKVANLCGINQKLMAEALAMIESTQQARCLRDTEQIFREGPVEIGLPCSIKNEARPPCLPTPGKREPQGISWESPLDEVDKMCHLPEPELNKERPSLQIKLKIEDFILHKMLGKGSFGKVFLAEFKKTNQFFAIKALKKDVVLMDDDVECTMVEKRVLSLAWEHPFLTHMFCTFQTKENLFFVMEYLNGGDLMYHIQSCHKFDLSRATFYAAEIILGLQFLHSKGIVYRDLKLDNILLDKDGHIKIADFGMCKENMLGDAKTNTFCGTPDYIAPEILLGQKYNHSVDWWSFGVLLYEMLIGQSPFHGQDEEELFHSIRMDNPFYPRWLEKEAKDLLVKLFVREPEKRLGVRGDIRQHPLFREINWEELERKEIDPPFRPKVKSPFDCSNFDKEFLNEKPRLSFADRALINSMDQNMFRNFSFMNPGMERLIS
Sequence of Wee1-like protein kinase (Homo sapiens) (P30291 whole entry, looked up): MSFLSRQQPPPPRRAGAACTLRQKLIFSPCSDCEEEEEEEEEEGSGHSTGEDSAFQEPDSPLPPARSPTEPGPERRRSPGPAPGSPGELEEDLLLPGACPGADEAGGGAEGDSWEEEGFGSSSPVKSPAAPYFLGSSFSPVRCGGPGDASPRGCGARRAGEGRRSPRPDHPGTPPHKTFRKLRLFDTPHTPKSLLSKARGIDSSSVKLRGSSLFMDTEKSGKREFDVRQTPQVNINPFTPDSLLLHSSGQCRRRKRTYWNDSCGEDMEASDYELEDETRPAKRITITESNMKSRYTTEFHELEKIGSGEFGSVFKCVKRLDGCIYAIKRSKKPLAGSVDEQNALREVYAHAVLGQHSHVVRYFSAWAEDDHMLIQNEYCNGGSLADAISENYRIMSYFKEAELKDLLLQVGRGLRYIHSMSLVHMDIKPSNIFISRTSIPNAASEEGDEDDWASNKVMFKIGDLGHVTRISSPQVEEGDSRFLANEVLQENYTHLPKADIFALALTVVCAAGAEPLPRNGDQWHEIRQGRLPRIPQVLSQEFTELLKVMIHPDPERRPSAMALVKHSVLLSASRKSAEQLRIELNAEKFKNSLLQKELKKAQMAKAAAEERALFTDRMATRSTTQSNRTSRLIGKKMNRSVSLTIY
Sequence of Dual specificity testis-specific protein kinase 1 (Homo sapiens) (Q15569 whole entry, looked up): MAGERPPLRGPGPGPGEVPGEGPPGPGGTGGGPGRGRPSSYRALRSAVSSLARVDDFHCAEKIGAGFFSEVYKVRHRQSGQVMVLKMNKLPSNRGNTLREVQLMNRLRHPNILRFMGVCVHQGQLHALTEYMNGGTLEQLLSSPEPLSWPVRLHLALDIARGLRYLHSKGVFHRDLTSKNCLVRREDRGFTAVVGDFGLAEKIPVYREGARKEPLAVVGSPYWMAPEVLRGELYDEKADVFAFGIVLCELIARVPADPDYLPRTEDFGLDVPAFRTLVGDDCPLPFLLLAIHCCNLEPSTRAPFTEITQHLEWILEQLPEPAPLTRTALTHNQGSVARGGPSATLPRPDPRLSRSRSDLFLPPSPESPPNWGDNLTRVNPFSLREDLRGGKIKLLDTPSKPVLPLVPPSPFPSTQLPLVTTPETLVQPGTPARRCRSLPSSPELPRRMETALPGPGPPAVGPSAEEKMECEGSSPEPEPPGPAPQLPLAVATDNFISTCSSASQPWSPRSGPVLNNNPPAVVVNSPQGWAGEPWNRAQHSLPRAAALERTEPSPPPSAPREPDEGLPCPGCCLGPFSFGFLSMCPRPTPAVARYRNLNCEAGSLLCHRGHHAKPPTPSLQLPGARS

In turn, `Nc1cnc(N2CCc3cc(S(=O)(=O)Nc4c(F)cc(Cl)cc4F)cc(N4CCCC4=O)c32)nc1` [TP-020n] returned a % of control in test [1] of 72%.

`CC[C@@H]1[C@H](F)C(=O)N[C@@H]1COc1nccc2cc(C(N)=O)c(OC)cc12` [ZIMLOVISERTIB]: the % of inhibition is -2.6% in test [2] (at 0.01 µM); 9.8% in test [2] (at 0.04 µM); 1.9% in test [2] (at 0.2 µM); -7.1% in test [2] (at 1 µM); -4.3% in test [2] (at 5 µM); 3.66% in test [3].

For the compound `COCC(=O)NC/C=C/c1ccc2ncnc(Nc3ccc(Oc4ccc(C)nc4)c(C)c3)c2c1` [CP-724714], the % of control in test [4] is 100%.

On to `N#Cc1cccc(-c2c[nH]c3ncnc(N4CCOCC4)c23)c1`, for which the % of inhibition in test [5] is 5%.

`O[C@H]1CC[C@H](Nc2ncc3nc(Nc4c(F)cc(F)cc4F)n([C@H]4CCOC4)c3n2)CC1` showed a % of control in test [6] of 78%.
